Experimental data reported in paper PMC10222646 (Microorganisms, 2023).

Columns and labels:
[1] = test system: macrophage-like cells differentiated from THP-1
[2] = test system: human cell lines (HepG2, HEK293, Caco-2, THP-1, macrophage)
[3] = test system: P. falciparum transmission to Anopheles gambiae mosquitoes; test: Transmission-blocking standard membrane feeding assay (SMFA), oocysts in mosquito midguts; type: in vivo, Plasmodium falciparum NF54; details: for Mean oocyst number per midgut: control 2.6; for Infect(%) percentage of infected mosquitoes: control 60
human GS-II (hGS-II) = biological target: T1, human GS-II (hGS-II) (Homo sapiens, UniProt P15104); test: Glutamine synthetase assay, human GS-II (Glutamine/Glutamate-GLO); type: biochemical; details: 1 µM AST, 30 min, Figure 2b
T1 construct: purchased BioVision Inc., Milpitas, CA, USA
T1 sequence (P15104 whole entry): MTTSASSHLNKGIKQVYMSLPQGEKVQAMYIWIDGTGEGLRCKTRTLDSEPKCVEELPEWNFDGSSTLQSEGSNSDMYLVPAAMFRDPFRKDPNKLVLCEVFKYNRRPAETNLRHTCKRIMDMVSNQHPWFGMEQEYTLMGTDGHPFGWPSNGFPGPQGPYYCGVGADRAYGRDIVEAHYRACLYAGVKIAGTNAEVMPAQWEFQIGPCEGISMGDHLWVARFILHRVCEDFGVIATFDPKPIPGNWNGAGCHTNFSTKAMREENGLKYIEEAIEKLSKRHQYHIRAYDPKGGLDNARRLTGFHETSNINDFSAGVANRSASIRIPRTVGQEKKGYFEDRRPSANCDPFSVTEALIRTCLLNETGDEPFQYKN
Method: The activity and inhibition profiles of purified MBP-fused PfGS-I or human GS-II (hGS-II) (BioVision Inc., Milpitas, CA, USA) in the presence or absence of AST were estimated from glutamine production using Glutamine/Glutamate-GLO^TM Assay Kit (Promega, Madison, WI, USA). The assay mixture (50 mM imidazole-HCl buffer (pH 7.0), 7.6 mM ATP, 50 mM magnesium chloride, 50 mM ammonium chloride) with or without the indicated concentration of GS enzyme was preincubated in the presence or absence of the indicated concentrations of AST for 15 min at room temperature. The reaction was initiated through the addition of L-glutamate at 0.1 mM, the final concentration. The reaction mixtures were incubated at 37 °C with shaking at 300 rpm for the indicated time. The reactions were terminated by chilling the reaction mixture in ice water and filtered with 30 kDa Amicon Ultra centrifugal filters at 4 °C. Glutamate concentrations in the filtered samples were determined using a Glutamine/Glutamate-GLO^TM Assay as instructed in the kit’s manual, from which glutamine concentrations were estimated by subtracting the glutamate concentrations from the initial concentrations (0.1 mM). The EC50 (half maximal effective concentration) of AST for PfGS-I was calculated using Sigma Plot (Systat Software, Inc., Sun Jose, CA, USA).

[4] = test system: Anopheles gambiae mosquitoes; test: Mosquito mortality observed in SMFA (insecticidal activity); details: AST in blood meal
[5] = biological target: T2, P. falciparum GS-I (PfGS-I) (Plasmodium falciparum, UniProt W7JM41); test: Glutamine synthetase assay, purified MBP-fused PfGS-I (Glutamine/Glutamate-GLO); type: biochemical, Plasmodium falciparum NF54
T2 sequence (W7JM41 1-544): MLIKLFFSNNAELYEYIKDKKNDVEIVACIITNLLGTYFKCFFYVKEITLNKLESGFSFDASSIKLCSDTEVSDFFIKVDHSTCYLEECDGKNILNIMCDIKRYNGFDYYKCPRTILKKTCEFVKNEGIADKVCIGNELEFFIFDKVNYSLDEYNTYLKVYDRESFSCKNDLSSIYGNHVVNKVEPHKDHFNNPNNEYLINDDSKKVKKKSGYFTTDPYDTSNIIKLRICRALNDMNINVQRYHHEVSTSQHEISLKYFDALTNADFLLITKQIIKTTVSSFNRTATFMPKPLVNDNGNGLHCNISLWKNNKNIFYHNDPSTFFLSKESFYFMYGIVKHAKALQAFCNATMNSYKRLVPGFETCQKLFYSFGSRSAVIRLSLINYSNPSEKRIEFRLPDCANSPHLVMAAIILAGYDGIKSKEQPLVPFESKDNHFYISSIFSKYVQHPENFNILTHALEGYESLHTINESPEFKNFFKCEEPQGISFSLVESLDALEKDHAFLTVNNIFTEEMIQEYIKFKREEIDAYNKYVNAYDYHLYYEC

[6] = test system: asexual-stage P. falciparum; test: Antimalarial activity on asexual-stage P. falciparum in human blood (parasitemia, Giemsa smears); type: cell-based, Plasmodium falciparum NF54; details: day 4, 0.5% starting parasitemia, 2% hematocrit; read-out: EC50 for inhibition of the asexual-stage P. falciparum (parasitemia rates)
Method: 3–5-day cultured P. falciparum-infected red blood cells (iRBCs) were mixed with fresh human red blood cells (RBCs) (AB+ type) in complete RPMI 1640 to prepare cultures with 0.5% parasitemia and 2% hematocrit. AST was dissolved in dimethyl sulfoxide (DMSO). Then, 5 μL DMSO with AST at concentrations of 0, 0.5, 1, 2, 4, and 8 mM were added to the 0.5 mL iRBCs in a 48-well plate, yielding final concentrations of 5, 10, 20, 40, and 80 µM, respectively. The plate was incubated in a candle jar at 37 °C. Approximately 48 h later, the medium was replaced with fresh medium containing the same concentration of AST. Parasitemia was recorded via microscopic evaluation of Giemsa-stained blood smears on day 4 post-incubation.

## C[As](=O)(O)CC[C@H](N)C(=O)O [AST, 2-amino-4-(hydroxymethylarsinoyl)butanoate]
HEK293
  CC50: > 250 µM
  cytotoxicity relative to As(III) (times less cytotoxic): > 10 times
[1]
  CC50: > 250 µM
[2]
  permeability (total cellular arsenic levels): permeable
[3]; 3 µM AST, SMFA
  inhibition of malaria transmission: completely inhibited
[3]; SMFA, day 7 post-infection, read-out: EC50 in blocking the transmission of the sexual-stage P. falciparum to mosquitos (oocysts per mosquito)
  EC50: 0.34 µM
[3]; [AST] 0.1 μM
  Mean oocyst number per midgut: 2.8
  Infect(%) percentage of infected mosquitoes: 59.6%
[3]; [AST] 0.3 μM
  Mean oocyst number per midgut: 1.4
  Infect(%) percentage of infected mosquitoes: 36.8%
[3]; [AST] 1 μM
  Mean oocyst number per midgut: 0.25
  Infect(%) percentage of infected mosquitoes: 20%
[3]; [AST] 3 μM
  Mean oocyst number per midgut: 0
  Infect(%) percentage of infected mosquitoes: 0%
[3]; [AST] 30 μM
  Mean oocyst number per midgut: 0
  Infect(%) percentage of infected mosquitoes: 0%
Caco-2
  CC50: 150 to 200 µM
Human GS-II (hGS-II)
  effect on activity of hGS-II: did not significantly reduce
[4]
  insecticidal activity (dead mosquitoes): no dead mosquitoes were observed
HepG2
  CC50: > 250 µM
[5]
  EC50: 0.4 µM
[5]; 1 µM AST, PfGS-I 1 µM, 30 min, Figure 2b
  activity of PfGS-I compared with the control without AST treatment: less than 40%
[5]; AST at 100 µM, Figure 2c
  inhibition of PfGS-I activity: completely inhibited
[6]
  EC50: 13.9 µM
THP-1
  CC50: > 250 µM
